Laboratory results from article PMC2670829 (BMC Pharmacology, 2009).
Values joined by “and” are separate entries in the source; they are usually repeats but may differ in a detail not shown here. Equal values may be shown once. Read-outs that look alike come from different tables or passages of the source. Marks after values point to notes of the source that are not given here.

What was measured:
[1] = test system: kidney cystadenomas in Tsc2^+/- mice; conditions: cited from earlier work; for Percent decrease in tumor score per kidney with treatment / Tumor score per kidney (ave. ± Std. Err.): analysis at 12 months, ref Messina et al., 2007; for Tumor score per kidney (ave. ± Std. Err.): CCI-779 8 mg/kg per day, 5 days/week
[2] = test system: subcutaneous Tsc2^-/- tumors (NTC/T2null cells); experiment: Subcutaneous Tsc2-/- tumor model in nude mice, atorvastatin, doxycycline and rapamycin study; conditions: for Median survival: time to tumor volume ~3000 mm^3, atorvastatin 20 mg/kg IP, start at ~50 mm^3; for Median survival / Efficacy on tumor growth and survival, in words: rapamycin 8 mg/kg IP 3 days per week, doxycycline 10 mg/kg IP 5 days per week
Method: (§1) Nude mice (strain CD-1nuBR, up to 6–8 weeks old) were obtained from Charles River Laboratories, Inc. (Wilmington, Massachusetts) and injected subcutaneously on the dorsal flank with 2.5 million NTC/T2null (Tsc2^-/-, Trp53^-/-) cells. As soon as tumors became visible, they were measured Monday through Friday using calipers. Tumor volumes were calculated using the formula: length × width × width × 0.5 [43]. All mice were euthanized once tumors reached ~3000 mm^3 in accordance with institutional animal care guidelines. Please note that survival analysis is done using time to tumor volume of ~3000 mm^3, because this is when animals are euthanized. […] Statistical comparison of tumor volume measurements between groups is done on the last day that relevant groups had at least four tumor measurements.
A cohort of 48 CD-1 nude mice was injected with NTC/T2null (Tsc2^-/-, Trp53^-/-) cells.
All drug treatments started when tumors reached a volume of ~50 mm^3 (day 1 of treatment), regardless of treatment schedule, and animals were euthanized when tumors reached a volume of ~3000 mm^3. If a volume of 40 mm^3 was reached on Thursday or Friday, treatment began that day. Otherwise, treatment was started on the day tumor volume was ≥50 mm^3.
Mice being treated with doxycycline were treated daily Monday through Friday with 200 μl of a 1.5 mg/ml (10 mg/kg) IP injection. […] All drug doses were calculated based on an average weight of 30 g per mouse. […] Doxycycline powder was obtained from Sigma-Aldrich Co. (St. Louis, MO) and was diluted in sterile PBS.

[3] = mouse, in vivo
Method: Animal behavior and health were monitored daily, and animals were weighed at the start of the study and at the time of necropsy. […] All mice from rapamycin treated cohorts were euthanized 24 hours after the last rapamycin treatment upon reaching the endpoint tumor volume. Upon sacrifice, whole blood and tumor were harvested for drug level testing.

[4] = test system: kidney cystadenomas in Tsc2^+/- mice; experiment: Kidney tumor (cystadenoma) score by quantitative histopathology in Tsc2+/- mice; format: in vivo, mouse; conditions: for Tumor score per kidney (ave. ± Std. Err.): daily IP treatment at 6–7 and 12–13 months (rapamycin 8 mg/kg, IFN-g 20,000 IU), weekly rapamycin 16 mg/kg at 7–12 months
Method: The Tsc2^+/- mouse is heterozygous for a deletion of exons 1–2 as previously described. The Tsc2^+/- cohort used in this experiment was obtained by crossing these Tsc2^+/- mice with wild-type C57BL/6 mice. In order to avoid bias due to strain variation, sibling littermates were used as controls. Tsc2^+/- mice were assigned to one of three cohorts: rapamycin 8 mg/kg IP, rapamycin 8 mg/kg plus IFN-g 20,000 units IP, and untreated. All mice receiving drug therapy were treated in three consecutive parts: In part one, mice were treated daily (5 days/week, Monday through Friday) for one month (6 months ≤ age < 7 months) with their assigned treatments by intraperitoneal injection (IP). In part two, all mice in both the rapamycin and rapamycin plus IFN-g cohorts stopped their assigned daily treatment and started a weekly 16 mg/kg maintenance dose of rapamycin for five months (7 months ≤ age < 12 months). In the final part, all mice restarted the same treatment they received from 6–7 months of age for one final month (see Table 1). The two month-long periods of daily rapamycin treatment before and after the maintenance treatment were included so that we can compare the results of this study with our previous preclinical studies that also include a total of two months of daily treatment without the weekly maintenance treatment phase. All mice were euthanized at 13 months of age according to institutional animal care guidelines. We evaluated kidney disease at 13 months in this experiment instead of 12 months in prior studies because kidney disease severity is likely to be higher in older mice, and we reasoned that this may allow us to better detect small differences between treatment groups. The severity of kidney disease was determined in all animals using quantitative histopathology as described below.
Rapamycin powder was obtained from LC Laboratories (Woburn, MA) and a 20 mg/ml stock of rapamycin was made in ethanol (stored at -20°C for up to one week). The stock solution was diluted to 1.2 mg/ml in vehicle (0.25% PEG, 0.25% Tween-80) for the 8 mg/kg dose and diluted to 2.4 mg/ml in vehicle for the 16 mg/kg dose. Murine IFN-g (R&D Systems, Minneapolis, MN) was diluted to 100,000 units/ml in sterile phosphate buffered saline (PBS) containing 0.1% mouse serum albumin (Sigma-Aldrich, Inc., St. Louis, MO) and stored at 4°C. […]
For histological quantification of kidney cystadenomas, each kidney was fixed and sliced at 1 mm intervals. […] All slides were coded to keep scoring blinded, and all cystadenomas were counted, measured, and scored according to the scale shown in Table 2 by two blinded researchers (CW and AN). Cystadenomas that extended into more than one 1 mm kidney slice were counted only once and scored according to the maximum diameter. […]

[5] = in vivo; conditions: mouse, intraperitoneal, 8 mg/kg
[6] = test system: subcutaneous Tsc2^-/- tumors (NTC/T2null cells); experiment: Subcutaneous Tsc2-/- tumor model in nude mice, sorafenib and rapamycin study; conditions: rapamycin 8 mg/kg IP, sorafenib 60 mg/kg gavage, 5 days per week
Method: as §1
Two mice were excluded from the analyses. […] All drug doses were calculated based on an average weight of 30 g per mouse.

[7] = no reference given; cited from earlier work
[8] = in words
[9] = 8 mg/kg daily × 2 months, total 9.6 mg per mouse, ref Messina et al. 2007
[10] = mean ± standard error, rapamycin 8 mg/kg 3 days per week, atorvastatin 20 mg/kg, doxycycline 10 mg/kg 5 days per week, IP

For `CO[C@H]1C[C@@H]2CC[C@@H](C)[C@@](O)(O2)C(=O)C(=O)N2CCCC[C@H]2C(=O)O[C@H]([C@H](C)C[C@@H]2CC[C@@H](OC(=O)C(C)(CO)CO)[C@H](OC)C2)CC(=O)[C@H](C)/C=C(\C)[C@@H](O)[C@@H](OC)C(=O)[C@H](C)C[C@H](C)/C=C/C=C/C=C/1C` [CCI-779, temsirolimus], the “% Reduction in kidney tumors (kidney tumor number)” value ([1]; 4 mg/kg 3 times a week × 3 months, total 4.32 mg per mouse, ref Lee et al. 2005) is listed as 84% and 83.6%**, the “% Reduction in kidney tumors (kidney tumor number)” value [1, 9] is listed as 64% and the “% Reduction in kidney tumors (kidney tumor score)” value [1, 9] is listed as 63%*. For the same molecule, the “Percent decrease in tumor score per kidney with treatment” value ([1]; CCI-779 8 mg/kg per day at 6–8 months) was 39.7%, the “Percent decrease in tumor score per kidney with treatment” value ([1]; CCI-779 8 mg/kg per day at 10–12 months, 8 mg/kg/day) was 64.4% and the “Tumor score per kidney (ave. ± Std. Err.)” value ([1]; at 6–8 months) was 6.00 ± 1.01. The “Tumor score per kidney (ave. ± Std. Err.)” value ([1]; at 10–12 months) was 3.54 ± 0.76.

With `CO[C@H]1C[C@@H]2CC[C@@H](C)[C@@](O)(O2)C(=O)C(=O)N2CCCC[C@H]2C(=O)O[C@H]([C@H](C)C[C@@H]2CC[C@@H](O)[C@H](OC)C2)CC(=O)[C@H](C)/C=C(\C)[C@@H](O)[C@@H](OC)C(=O)[C@H](C)C[C@H](C)/C=C/C=C/C=C/1C` [Rapamycin] the “Day 26, average tumor volume” value [2, 10] was 544 ± 110 mm^3, the “Day 42, average tumor volume” value [2, 10] was 1784 ± 643 mm^3 and the Median survival [2] was 41.5 days. For the same molecule, the “Weight at Necropsy” value [3] was 35.6 ± 0.6 g, the “Weight at Start” value [3] was 36.0 ± 0.6 g and the Weight gain [3] was -0.4 ± 0.6 g. The “Weight gain, in words” value [3] was “failed to gain weight”, the “Score of kidney lesion subtypes (cystic, pre-papillary, papillary, solid)” value ([4]; 13 months, in words, no statistics) was “reduced the score of all subtypes of kidney lesions” and the “Tumor score per kidney (ave. ± Std. Err.)” value ([4]; analysis at 13 months) was 0.83 ± .018. For the same molecule, the “Tumor score per kidney (ave. ± Std. Err.)” value ([4]; analysis at 13 months, listed as rapamycin) was 0.83 ± 0.18, the “Percent decrease in tumor score per kidney with treatment” value ([4]; vs untreated, analysis at 13 months, daily treatment 6–7 and 12–13 months, weekly rapamycin 16 mg/kg 7–12 months) was 94.5% and the concentration at 24 h ([5]; CD-1 nude, tumor) was 258 ± 91.6 ng/mL. For the same molecule, the concentration at 24 h ([5]; nude, whole blood) was 42.9 ± 24.7 ng/mL, the “Day 16, average tumor volume” value ([6]; mean ± standard error) was 284 ± 52 mm^3 and the “Day 43, average tumor volume” value ([6]; mean ± standard error) was 2499 ± 222 mm^3. For the same molecule, the “Day 44, average tumor volume” value ([6]; mean ± standard error) was 2607 ± 247 mm^3, the Median survival ([6]; time to tumor volume ~3000 mm^3, start at ~150 mm^3) was 46 days and the “Trough levels for standard rapamycin dosing in humans” value [7] was 3 to 20 ng/mL.

With `C[C@H]1c2cccc(O)c2C(=O)C2=C(O)[C@]3(O)C(=O)C(C(N)=O)=C(O)[C@@H](N(C)C)[C@@H]3[C@@H](O)[C@@H]21` [Doxycycline] the “Efficacy on tumor growth and survival, in words” value (“Efficacy” for short) ([2]; atorvastatin 20 mg/kg) was “not effective as either a single agent or in combination with rapamycin”, the “Day 26, average tumor volume” value [2, 10] was 1749 ± 352 mm^3 and the Median survival [2] was 28 days. The “Effect on the metabolism of rapamycin (rapamycin levels in combination cohorts)” value [8] was “did not significantly affect the metabolism of rapamycin”.

For `CC(C)c1c(C(=O)Nc2ccccc2)c(-c2ccccc2)c(-c2ccc(F)cc2)n1CC[C@@H](O)C[C@@H](O)CC(=O)O` [Atorvastatin], the “Efficacy” value ([2]; atorvastatin 20 mg/kg) was “did not reduce tumor growth or improve survival as a single agent”, the “Day 26, average tumor volume” value [2, 10] was 1931 ± 298 mm^3 and the Median survival [2] was 32.5 days.

In the case of `CNC(=O)c1cc(Oc2ccc(NC(=O)Nc3ccc(Cl)c(C(F)(F)F)c3)cc2)ccn1` [Sorafenib], the “Effect on the metabolism of rapamycin (rapamycin levels in combination cohorts)” value [8] is reported as “did not significantly affect the metabolism of rapamycin”, the “Day 16, average tumor volume” value ([6]; mean ± standard error) is reported as 2209 ± 499 mm^3 and the “Efficacy” value [6] is reported as “not effective”.
